According to patent US10421750B2, “Substituted morpholine derivatives having activity against pain” (ESTEVE PHARMACEUTICALS, S.A., priority 2015, dated 2019):

Each compound was assayed against human σ1 receptor (Homo sapiens (Human), UniProt Q99720) (assay: Human σ1 receptor radioligand assay ([3H](+)-pentazocine, transfected HEK-293 membranes)). Details: binding to the σ1 receptor expressed as Ki, [3H](+)-pentazocine 5 nM.
Chain of human σ1 receptor (Q99720 whole entry): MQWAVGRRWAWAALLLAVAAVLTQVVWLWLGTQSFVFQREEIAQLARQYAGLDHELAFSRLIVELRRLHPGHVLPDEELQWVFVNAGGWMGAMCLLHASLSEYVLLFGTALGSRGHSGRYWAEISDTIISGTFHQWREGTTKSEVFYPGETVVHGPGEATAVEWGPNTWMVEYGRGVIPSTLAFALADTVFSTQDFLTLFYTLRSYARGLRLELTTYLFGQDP
Protocol: Human σ1 Receptor Radioligand Assay
To investigate binding properties of test compounds to human σ1 receptor, transfected HEK-293 membranes and [^3H](+)-pentazocine (Perkin Elmer, NET-1056), as the radioligand, were used. The assay was carried out with 7 μg of membrane suspension, 5 nM of [^3H](+)-pentazocine in either absence or presence of either buffer or 10 μM Haloperidol for total and non-specific binding, respectively. Binding buffer contained Tris-HCl 50 mM at pH 8. Plates were incubated at 37° C. for 120 minutes. After the incubation period, the reaction mix was then transferred to MultiScreen HTS, FC plates (Millipore), filtered and plates were washed 3 times with ice-cold 10 mM Tris-HCL (pH7.4). Filters were dried and counted at approximately 40% efficiency in a MicroBeta scintillation counter (Perkin-Elmer) using EcoScint liquid scintillation cocktail
`CCN1CC(C2CCN(CCC(C)C)CC2)OC2(CC2)C1=O` (stereo not drawn) [Example 40, 7-ethyl-5-(1-isopentylpiperidin-4-yl)-4-oxa-7-azaspiro[2.5]octan-8-one] gave a Ki of less than 500 nM. `CCN1CC(C2CCN(CCc3ccccc3)CC2)OC2(CC2)C1=O` (stereo not drawn) [Example 7, 7-Ethyl-5-(1-phenethylpiperidin-4-yl)-4-oxa-7-azaspiro[2.5]octan-8-one] showed a Ki of less than 500 nM. Compound `CCN1CC(C2CCN(CCc3ccccc3)CC2)OC2(CC2)C1` (stereo not drawn) [Example 11, 7-Ethyl-5-(1-phenethylpiperidin-4-yl)-4-oxa-7-azaspiro[2.5]octane] has a Ki of less than 500 nM. `COc1ccc(CN2CC(C3CCN(Cc4ccccc4)CC3)OC3(CC3)C2=O)cc1` (stereo not drawn) [Example 3, 5-(1-Benzylpiperidin-4-yl)-7-(4-methoxybenzyl)-4-oxa-7-azaspiro[2.5]octan-8-one] gave a Ki of less than 500 nM. Work on `COc1ccc(CN2CC(C3CCN(CCc4ccccc4)CC3)OC3(CC3)C2=O)cc1` (stereo not drawn) [Example 1, 7-(4-Methoxybenzyl)-5-(1-phenethylpiperidin-4-yl)4-oxa-7-azaspiro[2.5]octan-8-one] yielded a Ki of no less than 500 nM. `CCN1C[C@@H](C2CCN(Cc3ccccc3)CC2)O[C@@H](C)C1=O` [Example 23, (2S,6R)-6-(1-benzylpiperidin-4-yl)-4-ethyl-2-methylmorpholin-3-one] gave a Ki of no less than 500 nM. `O=C1N(c2ccccc2)CC(C2CN(Cc3ccccc3)C2)OC12CC2` (stereo not drawn) [Example 45, 5-(1-benzylazetidin-3-yl)-7-phenyl-4-oxa-7-azaspiro[2.5]octan-8-one] gave a Ki of less than 100 nM. For `CCN1C[C@H](C2CCN(Cc3ccc(C#N)cc3)CC2)O[C@H](C)C1=O` [Example 34, 4-((4-((2S,6R)-4-ethyl-6-methyl-5-oxomorpholin-2-yl)piperidin-1-yl)methyl)benzonitrile], the Ki was no less than 500 nM. `CCN1CC(C2CN(CCC(C)C)C2)OC2(CC2)C1=O` (stereo not drawn) [Example 22, 7-ethyl-5-(1-isopentylazetidin-3-yl)-4-oxa-7-azaspiro[2.5]octan-8-one] showed a Ki of less than 500 nM. In the case of `COc1ccc(CN2CC(C3CCN(CC(C)C)CC3)OC3(CC3)C2=O)cc1` (stereo not drawn) [Example 15, 5-(1-isobutylpiperidin-4-yl)-7-(4-methoxybenzyl)-4-oxa-7-azaspiro[2.5]octan-8-one], the Ki is reported as no less than 500 nM. `COc1ccc(CN2CC(C3CCN(CCC(C)C)CC3)OC3(CC3)C2)cc1` (stereo not drawn) [Example 47, 5-(1-isopentylpiperidin-4-yl)-7-(4-methoxybenzyl)-4-oxa-7-azaspiro[2.5]octane] was tested, and the Ki was less than 100 nM. `CCN1CC(C2CCN(Cc3ccccc3)CC2)OC2(CC2)C1=O` (stereo not drawn) [Example 5, 5-(1-benzylpiperidin-4-yl)-7-ethyl-4-oxa-7-azaspiro[2.5]octan-8-one] gave a Ki of less than 100 nM. In the case of `CC(C)CCN1CCC(C2CN(c3ccccc3)C(=O)C3(CC3)O2)CC1` (stereo not drawn) [Example 44, 5-(1-isopentylpiperidin-4-yl)-7-phenyl-4-oxa-7-azaspiro[2.5]octan-8-one], the Ki is reported as less than 500 nM. With `O=C(c1ccccc1)N1CC(C2CCN(Cc3ccccc3)CC2)OC2(CC2)C1` (stereo not drawn) [Example 4, (5-(1-benzylpiperidin-4-yl)-4-oxa-7-azaspiro[2.5]octan-7-yl)(phenyl)methanone] the Ki was less than 100 nM. `CCN1CC(C2CCN(Cc3ccccc3)CC2)OC2(CC2)C1` (stereo not drawn) [Example 14, 5-(1-benzylpiperidin-4-yl)-7-ethyl-4-oxa-7-asazaspiro[2.5]octane] gave a Ki of less than 100 nM. Work on `CCN1C[C@@H](C2CCN(Cc3ccc(F)cc3)CC2)O[C@@H](C)C1=O` [Example 27, (2S,6R)-4-ethyl-6-(1-(4-fluorobenzyl)piperidin-4-yl)-2-methylmorpholin-3-one] yielded a Ki of no less than 500 nM. In the case of `CCN1C[C@@H](C2CCN(Cc3ccccc3)CC2)O[C@H](C)C1=O` [Example 25, (2R,6R)-6-(1-benzylpiperidin-4-yl)-4-ethyl-2-methylmorpholin-3-one], the Ki is reported as no less than 500 nM. For `CCN1CC(C2CN(Cc3ccccc3)C2)OC2(CC2)C1=O` (stereo not drawn) [Example 42, 5-(1-benzylazetidin-3-yl)-7-ethyl-4-oxa-7-azaspiro[2.5]octan-8-one], the Ki was less than 500 nM.
